The record followed here is patent US9212164B2, “Pesticidal compositions and processes related thereto” (Dow AgroSciences LLC, priority 2012, dated 2015).

Type in all cases: in vivo
In experiment [1] the test system is Beet Armyworm (BAW) (Spodoptera exigua). Description: Bioassays on BAW, 128-well diet tray assay. Particulars: Spodoptera exigua, 168 h; 50 μg/cm^2 on artificial diet, second instar larvae, five to seven days, 25° C.; read-out: BAW Rating (percent mortality). An outline of the steps:
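Second-instar larvae (one to five per well) placed on artificial diet treated with 50 μg/cm^2 compound in 90:10 acetone-water, dried; eight wells per compound. Held at 25 °C, 14:10 light-dark, five to seven days; percent mortality per well averaged over the eight wells.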

The subject of experiment [2] is Cabbage Looper (CL) (Trichoplusia ni). Briefly: Bioassays on CL, 128-well diet tray assay. Particulars: 168 h, 50 μg/cm^2 on artificial diet, second instar larvae, five to seven days, 25° C., read-out: CL Rating (percent mortality). The essentials: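 Second-instar larvae (one to five per well) placed on artificial diet treated with 50 μg/cm^2 compound in acetone-water and dried, eight wells per compound. Held at 25 °C, 14:10 light-dark, for five to seven days. Percent mortality scored per well and averaged.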

For experiment [3], the system named is Green Peach Aphid (GPA) (Myzus persicae). Briefly: Bioassays on Green Peach Aphid, foliar spray on cabbage seedlings. Particulars: 200 ppm spray on cabbage seedlings, graded after three days. The source says:
GPA is the most significant aphid pest of peach trees, causing decreased growth, shriveling of the leaves, and the death of various tissues. It is also hazardous because it acts as a vector for the transport of plant viruses, such as potato virus Y and potato leafroll virus to members of the nightshade/potato family Solanaceae, and various mosaic viruses to many other food crops. GPA attacks such plants as broccoli, burdock, cabbage, carrot, cauliflower, daikon, eggplant, green beans, lettuce, macadamia, papaya, peppers, sweet potatoes, tomatoes, watercress, and zucchini, among other plants. GPA also attacks many ornamental crops such as carnation, chrysanthemum, flowering white cabbage, poinsettia, and roses. GPA has developed resistance to many pesticides.
Certain molecules disclosed in this document were tested against GPA using procedures described in the following example. In the reporting of the results, the “GPA Rating Table” was used (See Table Section).
Cabbage seedlings grown in 3-inch pots, with 2-3 small (3-5 cm) true leaves, were used as test substrate. The seedlings were infested with 20-50 GPA (wingless adult and nymph stages) one day prior to chemical application. […] Percent Control was measured by using Abbott's correction formula (W. S. Abbott, “A Method of Computing the Effectiveness of an Insecticide” J. Econ. Entomol. 18 (1925), pp. 265-267) as follows. […]

As to `O=C(NC1(C(=O)NCC(F)(F)F)CCC1)c1ccc(/C=C/C(c2cc(Cl)c(Cl)c(Cl)c2)C(F)(F)F)cc1Br` (stereo not drawn) [Compound F5], the mortality at 50 µg/cm2 in experiment [1] and in experiment [2] was 50 to 100% each time. Further, in experiment [3], the “GPA Rating (corrected % control)” value was “B (More than 0 - Less than 80)”.

As for `O=C(NC1(C(=O)NCC(F)(F)F)CC1)c1ccc(/C=C/C(c2cc(Cl)c(Cl)c(Cl)c2)C(F)(F)F)cc1I` (stereo not drawn) [FA2], the mortality at 50 µg/cm2 in experiment [1] and in experiment [2] was 50 to 100% in each case. In experiment [3], the “GPA Rating (corrected % control)” value is reported as “B (More than 0 - Less than 80)”.

The mortality is the share of the test organisms that died.
